Holding throughout (assay type): biochemical
In test [1] the target is T1, cathepsin B (Homo sapiens, UniProt P07858).
T1 construct: cathepsin B—isolated from human liver (Calbiochem #219362); purchased Calbiochem 219362; host or cells: human liver (tissue-derived)
The experiment in a line: Cathepsin B enzyme inhibition in vitro (kinetic fluorescence assay). The note with it: cathepsin B isolated from human liver vs calpain I. Summed up: (§1)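 Inhibition is measured at room temperature in cysteine-containing MES buffer, pH 6.0, by continuous fluorescence at 460 nm. Cathepsin S (0.5 nM) uses 20 μM Z-Val-Val-Arg-AMC; L (1 nM) and B (0.25 nM) use Z-Phe-Arg-AMC at 2 and 100 μM respectively.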

Test [2] addresses T2, cathepsin K (Homo sapiens, UniProt P43235).
T2 construct: purchased Calbiochem 342001; host or cells: E. coli
T2 sequence (P43235 115-329): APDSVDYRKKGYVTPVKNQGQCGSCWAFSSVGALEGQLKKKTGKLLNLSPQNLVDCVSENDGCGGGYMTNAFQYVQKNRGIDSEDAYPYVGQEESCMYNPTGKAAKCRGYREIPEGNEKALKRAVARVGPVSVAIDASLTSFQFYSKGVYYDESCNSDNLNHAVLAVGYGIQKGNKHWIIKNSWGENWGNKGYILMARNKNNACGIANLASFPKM
The experiment in a line: Cathepsin K enzyme inhibition in vitro (kinetic fluorescence assay). The note with it: cathepsin K activated from recombinant human procathepsin K vs calpain I.

The target of test [3] is T3, cathepsin L (Homo sapiens, UniProt P07711).
T3 construct: cathepsin L—isolated from human liver (Calbiochem #219402); purchased Calbiochem 219402; host or cells: human liver (tissue-derived)
The experiment in a line: Cathepsin L enzyme inhibition in vitro (kinetic fluorescence assay). The following applies: cathepsin L isolated from human liver vs calpain I. Summed up: as §1

Test [4] deals with T4, cathepsin S (Homo sapiens, UniProt P25774).
T4 construct: purchased Calbiochem 219343; host or cells: E. coli
The experiment in a line: Cathepsin S enzyme inhibition in vitro (kinetic fluorescence assay). The following applies: recombinant human cathepsin S vs calpain I. Summed up: as §1

T4 sequence (P25774 115-331): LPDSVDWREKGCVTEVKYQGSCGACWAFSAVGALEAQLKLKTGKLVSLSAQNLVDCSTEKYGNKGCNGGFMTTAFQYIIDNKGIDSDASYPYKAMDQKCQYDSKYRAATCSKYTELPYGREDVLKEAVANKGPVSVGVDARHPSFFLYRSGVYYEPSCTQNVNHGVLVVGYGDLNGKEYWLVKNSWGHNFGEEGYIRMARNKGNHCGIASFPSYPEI
T3 sequence (P07711 114-333): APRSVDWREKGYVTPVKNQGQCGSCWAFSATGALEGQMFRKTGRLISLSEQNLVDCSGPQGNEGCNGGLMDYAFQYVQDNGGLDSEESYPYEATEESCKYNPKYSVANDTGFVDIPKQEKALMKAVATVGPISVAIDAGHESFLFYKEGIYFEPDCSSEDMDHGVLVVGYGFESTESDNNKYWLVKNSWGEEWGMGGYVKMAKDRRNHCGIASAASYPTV

With `NC(=O)C(=O)C(Cc1ccc(F)cc1)NC(=O)c1cccnc1-n1ccc(-c2ccccc2OC(F)(F)F)n1` (stereo not shown) [Example 152, N-{3-Amino-1-[(4-fluorophenyl)methyl]-2,3-dioxopropyl}-2-(3-{2-[(trifluoromethyl)oxy]phenyl}-1H-pyrazol-1-yl)pyridine-3-carboxamide], the “Sel cat. B: Ki(cathepsin B)/Ki(calpain) ratio” value in test [1] is reported as “++ (++ means a Ki(cathepsin B)/Ki(calpain) ratio of ≧30)”. In test [2], the “Sel cat. K: Ki(cathepsin K)/Ki(calpain) ratio” value was “++ (++ means a Ki(cathepsin K)/Ki(calpain) ratio of ≧30)”. Also, the “Sel cat. L: Ki(cathepsin L)/Ki(calpain) ratio” value in test [3] is reported as “++ (++ means a Ki(cathepsin L)/Ki(calpain) ratio of ≧50)”. In test [4], the “Sel cat. S: Ki(cathepsin S)/Ki(calpain) ratio” value is listed as “++ (++ means a Ki(cathepsin S)/Ki(calpain) ratio of ≧100)”.
With `COc1ccc(CC(NC(=O)c2cccnc2-n2ccc(-c3cccc(Cl)c3Cl)n2)C(=O)C(N)=O)cc1` (stereo not shown) [Example 153, N-(3-Aamino-1-{[4-(methyloxy)phenyl]methyl}-2,3-dioxopropyl)-2-[3-(2,3-dichlorophenyl)-1H-pyrazol-1-yl]pyridine-3-carboxamide], in test [1], the “Sel cat. B: Ki(cathepsin B)/Ki(calpain) ratio” value is on record as “++ (++ means a Ki(cathepsin B)/Ki(calpain) ratio of ≧30)”. For the same compound, the “Sel cat. K: Ki(cathepsin K)/Ki(calpain) ratio” value in test [2] is recorded as “++ (++ means a Ki(cathepsin K)/Ki(calpain) ratio of ≧30)”. In test [3], the “Sel cat. L: Ki(cathepsin L)/Ki(calpain) ratio” value is “++ (++ means a Ki(cathepsin L)/Ki(calpain) ratio of ≧50)”. Also, the “Sel cat. S: Ki(cathepsin S)/Ki(calpain) ratio” value in test [4] is on record as “++ (++ means a Ki(cathepsin S)/Ki(calpain) ratio of ≧100)”.
Consider `NC(=O)C(=O)C(Cc1ccccc1)NC(=O)c1cccnc1-n1ccc(-c2cccc(C(F)(F)F)c2Cl)n1` (stereo not shown) [Example 155, N-[3-Amino-2,3-dioxo-1-(phenylmethyl)propyl]-2-{3-[2-chloro-3-(trifluoromethyl)phenyl]-1H-pyrazol-1-yl}pyridine-3-carboxamide], for which the “Sel cat. B: Ki(cathepsin B)/Ki(calpain) ratio” value in test [1] was “++ (++ means a Ki(cathepsin B)/Ki(calpain) ratio of ≧30)”. Moreover, the “Sel cat. K: Ki(cathepsin K)/Ki(calpain) ratio” value in test [2] was “++ (++ means a Ki(cathepsin K)/Ki(calpain) ratio of ≧30)”. Besides, in test [3], the “Sel cat. L: Ki(cathepsin L)/Ki(calpain) ratio” value is reported as “++ (++ means a Ki(cathepsin L)/Ki(calpain) ratio of ≧50)”. The “Sel cat. S: Ki(cathepsin S)/Ki(calpain) ratio” value in test [4] is listed as “++ (++ means a Ki(cathepsin S)/Ki(calpain) ratio of ≧100)”.
With `COc1ccc(CC(NC(=O)c2cccnc2-n2ccc(-c3cccc(F)c3Cl)n2)C(=O)C(N)=O)cc1` (stereo not shown) [Example 157, N-(3-Amino-1-{[4-(methyloxy)phenyl]methyl}-2,3-dioxopropyl)-2-[3-(2-chloro-3-fluorophenyl)-1H-pyrazol-1-yl]pyridine-3-carboxamide], the “Sel cat. B: Ki(cathepsin B)/Ki(calpain) ratio” value in test [1] is recorded as “++ (++ means a Ki(cathepsin B)/Ki(calpain) ratio of ≧30)”. In addition, in test [2], the “Sel cat. K: Ki(cathepsin K)/Ki(calpain) ratio” value was “++ (++ means a Ki(cathepsin K)/Ki(calpain) ratio of ≧30)”. For the same compound, the “Sel cat. L: Ki(cathepsin L)/Ki(calpain) ratio” value in test [3] is on record as “++ (++ means a Ki(cathepsin L)/Ki(calpain) ratio of ≧50)”. In test [4], the “Sel cat. S: Ki(cathepsin S)/Ki(calpain) ratio” value is given as “++ (++ means a Ki(cathepsin S)/Ki(calpain) ratio of ≧100)”.
With `CS(=O)(=O)Nc1cnc(-n2ccc(-c3ccccc3)n2)c(C(=O)NC(Cc2ccccc2)C(=O)C(N)=O)c1` (stereo not shown) [Example 158, N-[3-Amino-2,3-dioxo-1-(phenylmethyl)propyl]-5-[(methylsulfonyl)amino]-2-(3-phenyl-1H-pyrazol-1-yl)pyridine-3-carboxamide], the “Sel cat. B: Ki(cathepsin B)/Ki(calpain) ratio” value in test [1] was “++ (++ means a Ki(cathepsin B)/Ki(calpain) ratio of ≧30)”. Moreover, the “Sel cat. K: Ki(cathepsin K)/Ki(calpain) ratio” value in test [2] was “++ (++ means a Ki(cathepsin K)/Ki(calpain) ratio of ≧30)”. Also, the “Sel cat. L: Ki(cathepsin L)/Ki(calpain) ratio” value in test [3] is “++ (++ means a Ki(cathepsin L)/Ki(calpain) ratio of ≧50)”. In addition, the “Sel cat. S: Ki(cathepsin S)/Ki(calpain) ratio” value in test [4] was “++ (++ means a Ki(cathepsin S)/Ki(calpain) ratio of ≧100)”.
On the same counts, the results for `NC(=O)C(=O)C(Cc1ccccc1)NC(=O)c1cccnc1-n1ccc(-c2cccc3cccnc23)n1` (stereo not shown) [Example 160, N-[3-amino-2,3-dioxo-1-(phenylmethyl)propyl]-2-(3-quinolin-8-yl-1H-pyrazol-1-yl)pyridine-3-carboxamide] are “++ (++ means a Ki(cathepsin B)/Ki(calpain) ratio of ≧30)”, “++ (++ means a Ki(cathepsin K)/Ki(calpain) ratio of ≧30)”, “++ (++ means a Ki(cathepsin L)/Ki(calpain) ratio of ≧50)” and “++ (++ means a Ki(cathepsin S)/Ki(calpain) ratio of ≧100)”.
Take `NC(=O)C(=O)C(Cc1cccc(F)c1)NC(=O)c1cccnc1-n1ccc(-c2ccccc2OC(F)(F)F)n1` (stereo not shown) [Example 162, N-{3-Amino-1-[(3-fluorophenyl)methyl]-2,3-dioxopropyl}-2-(3-{2-[(trifluoromethyl)oxy]phenyl}-1H-pyrazol-1-yl)pyridine-3-carboxamide]: the “Sel cat. B: Ki(cathepsin B)/Ki(calpain) ratio” value in test [1] is “++ (++ means a Ki(cathepsin B)/Ki(calpain) ratio of ≧30)”. In test [2], the “Sel cat. K: Ki(cathepsin K)/Ki(calpain) ratio” value was “++ (++ means a Ki(cathepsin K)/Ki(calpain) ratio of ≧30)”. In addition, in test [3], the “Sel cat. L: Ki(cathepsin L)/Ki(calpain) ratio” value is “++ (++ means a Ki(cathepsin L)/Ki(calpain) ratio of ≧50)”. Also, the “Sel cat. S: Ki(cathepsin S)/Ki(calpain) ratio” value in test [4] is reported as “++ (++ means a Ki(cathepsin S)/Ki(calpain) ratio of ≧100)”.
On the same counts, the results for `NC(=O)C(=O)C(Cc1ccccc1)NC(=O)c1cccnc1-n1ccc(-c2cc(C(F)(F)F)ccc2CN2CCOCC2)n1` (stereo not shown) [Example 163, N-[3-Amino-2,3-dioxo-1-(phenylmethyl)propyl]-2-{3-[2-(morpholin-4-ylmethyl)-5-(trifluoromethyl)phenyl]-1H-pyrazol-1-yl}pyridine-3-carboxamide] are “+ (+ means 10≦Ki(cathepsin B)/Ki(calpain)<30)”, “+ (+ means 10≦Ki(cathepsin K)/Ki(calpain)<30)”, “+ (+ means 30≦Ki(cathepsin L)/Ki(calpain)<50)” and “++ (++ means a Ki(cathepsin S)/Ki(calpain) ratio of ≧100)”.
Take `NC(=O)C(=O)C(Cc1ccccc1)NC(=O)c1cccnc1-n1ccc(-c2cccc3c2OCC3)n1` (stereo not shown) [Example 164, N-[3-Amino-2,3-dioxo-1-(phenylmethyl)propyl]-2-[3-(2,3-dihydro-1-benzofuran-7-yl)-1H-pyrazol-1-yl]pyridine-3-carboxamide]: the “Sel cat. B: Ki(cathepsin B)/Ki(calpain) ratio” value in test [1] is reported as “+ (+ means 10≦Ki(cathepsin B)/Ki(calpain)<30)”. Also, in test [2], the “Sel cat. K: Ki(cathepsin K)/Ki(calpain) ratio” value is reported as “++ (++ means a Ki(cathepsin K)/Ki(calpain) ratio of ≧30)”. The “Sel cat. L: Ki(cathepsin L)/Ki(calpain) ratio” value in test [3] is given as “++ (++ means a Ki(cathepsin L)/Ki(calpain) ratio of ≧50)”. The “Sel cat. S: Ki(cathepsin S)/Ki(calpain) ratio” value in test [4] is “++ (++ means a Ki(cathepsin S)/Ki(calpain) ratio of ≧100)”.
For `NC(=O)C(=O)C(Cc1ccccc1)NC(=O)c1cccnc1-n1ccc(-c2ccccc2OC(F)F)n1` (stereo not shown) [Example 166, N-[3-Amino-2,3-dioxo-1-(phenylmethyl)propyl]-2-(3-{2-[(difluoromethyl)oxy]phenyl}-1H-pyrazol-1-yl)pyridine-3-carboxamide], in test [1], the “Sel cat. B: Ki(cathepsin B)/Ki(calpain) ratio” value is recorded as “+ (+ means 10≦Ki(cathepsin B)/Ki(calpain)<30)”. Also, the “Sel cat. K: Ki(cathepsin K)/Ki(calpain) ratio” value in test [2] is given as “++ (++ means a Ki(cathepsin K)/Ki(calpain) ratio of ≧30)”. The “Sel cat. L: Ki(cathepsin L)/Ki(calpain) ratio” value in test [3] is reported as “++ (++ means a Ki(cathepsin L)/Ki(calpain) ratio of ≧50)”. The “Sel cat. S: Ki(cathepsin S)/Ki(calpain) ratio” value in test [4] is “++ (++ means a Ki(cathepsin S)/Ki(calpain) ratio of ≧100)”.

(Values after patent US7799809B2, “Carboxamide compounds and their use as calpain inhibitors” (Abbott GmbH & Co. KG, priority 2006, dated 2010).)
